Among the test systems are 786-0 renal; A498 renal; ACHN renal; BT-549 breast; COLO 205 colon; IGROV1 ovarian; LOX IMVI melanoma; MDA-MB-435; MOLT-4 leukemia; NCI-H226 lung; NCI-H23 lung; OVCAR-5 ovarian; RXF 393 renal; SK-MEL-5 melanoma; SN12C renal; T-47D breast; TK-10 renal.
Common to all, as to assay: inhibition of tumour cell growth, NCI panel, 48 h

SMILES strings stand for the structures.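 Growth conditions: 96-well plates. Treatment: test compound, 48 hours, 5 concentrations. Analysis: linear interpolation between bracketing concentrations; unreached endpoints set to highest concentration. TGI: concentration producing complete growth inhibition.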

Turning to `OC(CCN1CCN(CCOC(c2ccc(F)cc2)c2ccc(F)cc2)CC1)c1ccccc1` (configuration not stated), the TGI with 786-0 renal was found to be 25.6 µM; with A498 renal it was 19.5 µM; in the assay on ACHN renal it was 25.8 µM; with BT-549 breast it was 27.1 µM; with COLO 205 colon, 18.2 µM; in the assay on IGROV1 ovarian, 27.1 µM. The TGI came to 28.2 µM in the assay on LOX IMVI melanoma; 38.9 µM with MDA-MB-435; 29.1 µM in the assay with MOLT-4 leukemia; 34.4 µM in the assay on NCI-H226 lung; 31.1 µM in the assay on NCI-H23 lung; 27.8 µM with OVCAR-5 ovarian. Moreover, the TGI is 24.1 µM with RXF 393 renal; 21 µM in the assay on SK-MEL-5 melanoma; 29.4 µM in the assay with SN12C renal; 28.7 µM in the assay with T-47D breast; 29.2 µM in the assay on TK-10 renal.

Consider `COc1ccc(-n2c(C)nc3ccc(N=Cc4ccccc4)cc3c2=O)cc1`, for which the TGI in the assay on 786-0 renal, in the assay on A498 renal, in the assay on ACHN renal, in the assay with BT-549 breast, in the assay with COLO 205 colon and in the assay on IGROV1 ovarian was greater than 100 µM each time. The TGI in the assay on LOX IMVI melanoma, with MDA-MB-435, in the assay on MOLT-4 leukemia, in the assay on NCI-H226 lung, with NCI-H23 lung and in the assay with OVCAR-5 ovarian was greater than 100 µM each time. For the same compound, the TGI with RXF 393 renal, with SK-MEL-5 melanoma, in the assay with SN12C renal, with T-47D breast and in the assay with TK-10 renal was greater than 100 µM each time.

Regarding `C[n+]1ccccc1/C=C/c1ccc2c(c1)OCO2`, the TGI with 786-0 renal, with A498 renal, with ACHN renal, in the assay on BT-549 breast, in the assay on COLO 205 colon and in the assay on IGROV1 ovarian was greater than 10 µM in each case. Moreover, the TGI with LOX IMVI melanoma, in the assay with MDA-MB-435, in the assay on MOLT-4 leukemia, with NCI-H226 lung, with NCI-H23 lung and in the assay with OVCAR-5 ovarian was greater than 10 µM in each case. For the same compound, the TGI in the assay on RXF 393 renal, with SK-MEL-5 melanoma, in the assay with SN12C renal, in the assay on T-47D breast and with TK-10 renal was greater than 10 µM throughout.

Take `CC1=CC(=O)c2cccc(O)c2C1=O`: the TGI with 786-0 renal turned out to be 3.09 µM; in the assay with A498 renal it was 33.5 µM; in the assay with ACHN renal, 3.17 µM; in the assay on BT-549 breast, 3.13 µM; in the assay with COLO 205 colon it was 4.36 µM; with IGROV1 ovarian, 26 µM. Moreover, the TGI in the assay with LOX IMVI melanoma was 8.6 µM; with MDA-MB-435, 3.28 µM; in the assay with MOLT-4 leukemia, greater than 28.3 µM; in the assay with NCI-H226 lung, 14.4 µM; in the assay on NCI-H23 lung, 7.32 µM; with OVCAR-5 ovarian it was 14.8 µM. The TGI with RXF 393 renal worked out at 3.36 µM; with SK-MEL-5 melanoma it was 3.29 µM; with SN12C renal, 5.11 µM; with T-47D breast, 3.72 µM; in the assay on TK-10 renal, 5.05 µM.

In the case of `CCCC/C=C1\CCC(CN2CCOCC2)C1=O` (configuration not stated), the TGI was determined as 4.25 µM in the assay on 786-0 renal; 27.4 µM in the assay with A498 renal; 8.23 µM with ACHN renal; 9.47 µM in the assay with BT-549 breast; 9.49 µM in the assay on COLO 205 colon; 29.2 µM in the assay on IGROV1 ovarian. Further, the TGI in the assay on LOX IMVI melanoma was determined as 3.14 µM; in the assay on MDA-MB-435, 23 µM; with MOLT-4 leukemia, 10.7 µM; in the assay on NCI-H226 lung, 24.2 µM; with NCI-H23 lung it was 12.2 µM; in the assay on OVCAR-5 ovarian, 32.9 µM. Further, the TGI amounted to 2.89 µM in the assay with RXF 393 renal; 26.9 µM in the assay with SK-MEL-5 melanoma; 10.7 µM with SN12C renal; 31.3 µM with T-47D breast; 19.5 µM in the assay on TK-10 renal.

Take `CCCCNC(=O)C1=C(C)NC(C)=C(C(=O)NCCCC)C1`: the TGI in the assay on 786-0 renal, with A498 renal, in the assay on ACHN renal, with BT-549 breast, in the assay on COLO 205 colon and with IGROV1 ovarian was greater than 100 µM throughout. The TGI in the assay on LOX IMVI melanoma, with MDA-MB-435, with MOLT-4 leukemia, in the assay on NCI-H226 lung, with NCI-H23 lung and in the assay with OVCAR-5 ovarian was greater than 100 µM throughout. Also, the TGI in the assay on RXF 393 renal, in the assay with SK-MEL-5 melanoma, with SN12C renal, in the assay with T-47D breast and in the assay with TK-10 renal was greater than 100 µM throughout.

As to `Oc1ccc2ccccc2c1N=Nc1ccc(N=Nc2ccccc2)cc1`, the TGI in the assay with 786-0 renal, with A498 renal, in the assay with ACHN renal, in the assay on BT-549 breast, in the assay with COLO 205 colon and in the assay on IGROV1 ovarian was greater than 100 µM each time. For the same compound, the TGI in the assay with LOX IMVI melanoma, in the assay on MDA-MB-435, with MOLT-4 leukemia, in the assay with NCI-H226 lung, in the assay with NCI-H23 lung and in the assay with OVCAR-5 ovarian was greater than 100 µM each time. The TGI with RXF 393 renal, in the assay on SK-MEL-5 melanoma, in the assay on SN12C renal, in the assay on T-47D breast and with TK-10 renal was greater than 100 µM throughout.

In the case of `COC(=O)c1ccc(NCc2cc(O)c3ccccc3c2O)cc1`, the TGI with 786-0 renal is 46.5 µM; in the assay with A498 renal, 36.7 µM; in the assay with ACHN renal it was 25.7 µM; with BT-549 breast, 30.7 µM; in the assay on COLO 205 colon it was 25.4 µM; in the assay on IGROV1 ovarian it was 25.5 µM. In addition, the TGI with LOX IMVI melanoma was found to be 11.5 µM; with MDA-MB-435, 4.63 µM; in the assay on MOLT-4 leukemia it was 9.73 µM; in the assay with NCI-H226 lung, 40 µM; with NCI-H23 lung it was 30.3 µM; in the assay with OVCAR-5 ovarian, 50.9 µM. For the same compound, the TGI with RXF 393 renal turned out to be 48.9 µM; in the assay on SK-MEL-5 melanoma it was 3.15 µM; with SN12C renal it was 40 µM; with T-47D breast it was 40.7 µM; in the assay with TK-10 renal it was 39.1 µM.

With `CC(C)C(OC(=O)c1cc(NC(=S)c2ccccc2)ccc1Cl)C(C)C`, the TGI was 50.8 µM in the assay on 786-0 renal; 58.4 µM in the assay with A498 renal; 65.7 µM in the assay with ACHN renal; 91.1 µM in the assay on BT-549 breast; 41.7 µM in the assay on COLO 205 colon; greater than 100 µM with IGROV1 ovarian. Besides, the TGI with LOX IMVI melanoma was 70.4 µM; in the assay with MDA-MB-435, greater than 100 µM; with MOLT-4 leukemia, greater than 64.2 µM; in the assay with NCI-H226 lung it was 45.5 µM; in the assay on NCI-H23 lung it was 35.7 µM; in the assay with OVCAR-5 ovarian, greater than 100 µM. For the same compound, the TGI with RXF 393 renal was 37.1 µM; in the assay with SK-MEL-5 melanoma, 29.9 µM; with SN12C renal, 39.6 µM; with T-47D breast, 29.5 µM; with TK-10 renal it was greater than 86.3 µM.

Take `CCOC(=O)C1C(=O)CC(C)(O)C(C(=O)OCC)C1c1ccc(O)c(OC)c1` (configuration not stated): the TGI with 786-0 renal, in the assay on A498 renal, in the assay with ACHN renal, with BT-549 breast, in the assay on COLO 205 colon and in the assay with IGROV1 ovarian was greater than 100 µM in each case. In addition, the TGI in the assay with LOX IMVI melanoma, in the assay on MDA-MB-435, with MOLT-4 leukemia, in the assay on NCI-H226 lung, in the assay on NCI-H23 lung and in the assay on OVCAR-5 ovarian was greater than 100 µM each time. For the same compound, the TGI with RXF 393 renal, in the assay on SK-MEL-5 melanoma, in the assay with SN12C renal, in the assay with T-47D breast and with TK-10 renal was greater than 100 µM in each case.

Regarding `COc1cc(C(CN)N(C)C)cc(OC)c1OC` (configuration not stated), the TGI with 786-0 renal, in the assay with A498 renal, in the assay with ACHN renal, in the assay with BT-549 breast, in the assay on COLO 205 colon and with IGROV1 ovarian was greater than 100 µM throughout. Further, the TGI was greater than 100 µM in the assay on LOX IMVI melanoma; greater than 100 µM with MDA-MB-435; greater than 100 µM with MOLT-4 leukemia; 71.6 µM in the assay with NCI-H226 lung; greater than 100 µM in the assay with NCI-H23 lung; greater than 100 µM in the assay with OVCAR-5 ovarian. The TGI with RXF 393 renal, in the assay on SK-MEL-5 melanoma, with SN12C renal, with T-47D breast and in the assay with TK-10 renal was greater than 100 µM in each case.

The values are drawn from PubChem BioAssay (NCI).
